The record followed here is patent US20230024302A1, “2,3,5-TRISUBSTITUTED PYRAZOLO[1,5-A]PYRIMIDINE COMPOUNDS” (Arcus Biosciences, Inc., priority 2019, published 2023).

One test concerns the target T1, PI3Kγ (p120γ) (Homo sapiens, UniProt P48736).
T1 construct: purchased Promega V1761
The experiment in a line: Inhibition of PI3K kinase activity (ADP Glo), PI3Kγ. The following applies: read-out: biochemical potency (PI3Kγ IC50). The gist of the method: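 IC50 values come from a 4-parameter nonlinear fit of ADP-Glo luminescence, which measures ADP produced as PIP2 is phosphorylated to PIP3. The p120γ enzyme (2× stock 8 nM) sat with compound 1 h at rt before substrate (2× stocks: 50 μM ATP, 0.1 mg/ml PIP2) was added. Phosphorylation then proceeded 60 min at rt.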

The target in a further test is T2, PI3Kγ (Homo sapiens, UniProt P48736).
T2 construct: host or cells: THP-1
The experiment in a line: PI3Kγ cellular assay in THP-1 cells (AKT pS473 AlphaLISA). The class given is cell-based. The gist of the method: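 Endogenous AKT S473 phosphorylation, detected by AlphaLISA in lysates, serves as the PI3Kγ activity read-out in stimulated, serum-starved THP-1 cells (1.8×10^5/well).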
On the technique in general: Alpha assays give light when donor and acceptor beads are brought close together.

The mark [1] stands for this setting: Table 6, rhMCP-1 stimulated AKT pS473, read-out: cellular potency (PI3Kγ IC50).
[2] abbreviates: Table 7, rhMCP-1 stimulated AKT pS473, read-out: cellular potency (PI3Kγ IC50).

Each structure is given as a SMILES string. Read-outs that look alike come from different tables or passages of the source.

T2 sequence (P48736 whole entry): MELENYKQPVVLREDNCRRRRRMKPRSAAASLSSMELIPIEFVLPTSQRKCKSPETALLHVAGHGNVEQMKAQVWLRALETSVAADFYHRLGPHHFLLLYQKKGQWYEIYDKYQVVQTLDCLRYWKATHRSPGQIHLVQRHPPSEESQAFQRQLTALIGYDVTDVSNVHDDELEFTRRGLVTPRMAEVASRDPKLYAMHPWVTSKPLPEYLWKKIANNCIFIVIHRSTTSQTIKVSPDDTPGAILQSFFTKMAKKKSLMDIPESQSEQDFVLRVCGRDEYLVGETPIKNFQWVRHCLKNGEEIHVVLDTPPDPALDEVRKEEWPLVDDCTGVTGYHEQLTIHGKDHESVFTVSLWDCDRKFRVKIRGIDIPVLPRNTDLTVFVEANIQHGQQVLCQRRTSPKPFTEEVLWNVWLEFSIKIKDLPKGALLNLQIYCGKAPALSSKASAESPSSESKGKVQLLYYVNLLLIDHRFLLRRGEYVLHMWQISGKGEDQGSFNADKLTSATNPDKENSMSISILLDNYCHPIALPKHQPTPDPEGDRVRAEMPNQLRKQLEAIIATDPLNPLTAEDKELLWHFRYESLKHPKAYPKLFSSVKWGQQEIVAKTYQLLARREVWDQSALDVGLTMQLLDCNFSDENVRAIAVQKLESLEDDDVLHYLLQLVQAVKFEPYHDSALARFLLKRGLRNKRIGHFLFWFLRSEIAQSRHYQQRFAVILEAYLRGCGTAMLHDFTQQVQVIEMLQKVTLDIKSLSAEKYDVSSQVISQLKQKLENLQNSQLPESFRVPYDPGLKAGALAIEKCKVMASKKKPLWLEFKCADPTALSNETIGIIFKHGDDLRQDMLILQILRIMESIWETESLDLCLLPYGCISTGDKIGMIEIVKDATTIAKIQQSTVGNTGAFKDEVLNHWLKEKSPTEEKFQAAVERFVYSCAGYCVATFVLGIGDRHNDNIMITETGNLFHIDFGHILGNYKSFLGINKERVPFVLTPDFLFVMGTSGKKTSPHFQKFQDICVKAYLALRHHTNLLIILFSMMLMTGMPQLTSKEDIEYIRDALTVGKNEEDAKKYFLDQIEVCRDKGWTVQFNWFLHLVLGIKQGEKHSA
T1 sequence (P48736 whole entry): as above

The IC50 is the point on the concentration scale where inhibition reaches its midpoint. With `CC[C@H](N1Cc2cc(-c3ccn4nc(N)c(C(=O)NC5CC5)c4n3)cc(Cl)c2C1=O)C(F)(F)F` [Example 449], the IC50 on PI3Kγ (p120γ) (Table 6, p120γ) is less than 100 nM; on PI3Kγ (setting [1]) it was 100 to 1000 nM.

With `CCc1cc(-c2ccn3nc(N)c(C(=O)NC4CC4)c3n2)cc2c1C(=O)N([C@@H](C)C1CC1)C2` [Example 450], the IC50 at PI3Kγ (p120γ) (Table 6, p120γ) is less than 100 nM; on PI3Kγ (setting [1]), 100 to 1000 nM.

As to `C[C@@H](C1CC1)N1Cc2cc(-c3ccn4nc(N)c(C(=O)NC5CC5)c4n3)cc(C#N)c2C1=O` [Example 451], the IC50 is less than 100 nM on PI3Kγ (p120γ) (Table 6, p120γ) and 100 to 1000 nM on PI3Kγ (setting [1]).

`C[C@@H](C1CC1)N1Cc2cc(-c3ccn4nc(N)c(C(=O)Nc5cccnc5)c4n3)cc(C3CC3)c2C1=O` [Example 452]: the IC50 on PI3Kγ (p120γ) (Table 6, p120γ) was less than 100 nM; on PI3Kγ (setting [1]) it was 100 to 1000 nM.

As to `C[C@@H](C1CC1)N1Cc2cc(-c3ccn4nc(N)c(C(=O)N[C@@H](CO)C5CC5)c4n3)cc(C(C)(C)O)c2C1=O` [Example 453], the IC50 on PI3Kγ (p120γ) (Table 6, p120γ) is less than 100 nM; at PI3Kγ (setting [1]), 100 to 1000 nM.

For the compound `C[C@@H](C1CC1)N1Cc2cc(-c3ccn4nc(N)c(C(=O)N[C@@H](CO)C5CC5)c4n3)cnc2C1=O` [Example 454], the IC50 at PI3Kγ (p120γ) (Table 7, p120γ) is less than 100 nM; at PI3Kγ (setting [2]), more than 1000 nM.

As for `C[C@@H](C1CC1)N1Cc2cc(-c3ccn4nc(N)c(C(=O)NC5CC5)c4n3)cnc2C1=O` [Example 455], the IC50 on PI3Kγ (p120γ) (Table 7, p120γ) is less than 100 nM; on PI3Kγ (setting [2]), 100 to 1000 nM.
